Literature values as cited in patent publication US20240317750A1, “An Efficient Process for the Synthesis of Methylliberine and Polymorphs Thereof” (Fertis India Pvt. Ltd., priority 2021, published 2024).

Details: background statement, available toxicological information; no test described

COc1nc2c(c(=O)n1C)n(C)c(=O)n2C [methylliberine, 2-Methoxy-1,7,9-trimethyl-7,9-dihydro-1H-purine-6,8-dione]
genotoxicity: does not cause any genotoxicity
